From patent EP0017679B1, “Pyridylalkylpyrimidone compounds, process for preparing them and pharmaceutical compositions containing them” (SMITH KLINE & FRENCH LABORATORIES LIMITED, priority 1979, dated 1980)

Tested on: mice
Experiment: acute toxicity (LD50) after bolus intravenous administration
Format: in vivo
Details: ratio to the analogue lacking the 6-substituent (or 5- and 6-substituents) in the pyridyl group
Description: The compounds of Structure (2) have particularly good histamine H,- and H2- antagonist activity and are less acutely toxic in mice (when administered intravenously) than the corresponding compounds of Structure (2) in which R is hydrogen. This decrease in acute toxicity is in general is not accompanied by a reduction in histamine H1-antagonist activity or histamine H2-antagonist activity. […] (LD50 is the minimum dose which kills 50% of mice after bolus intravenous administration of the test compound).

SMILES | LD50 value compared with the corresponding 5-(3-pyridylmethyl) analogue
COc1cccnc1CCCCNc1ncc(Cc2ccc(C)nc2)c(=O)[nH]1 [Example 1, 2-[4-(3-methoxy-2-pyridyl)butylamino]-5-(6-methyl-3-pyridylmethyl)-4-pyrimidone] | at least three
Cc1ccc(Cc2cnc(NCCSCc3nc[nH]c3C)[nH]c2=O)cn1 [Example 2, 2-[2-(5-methyl-4-imidazolylmethylthio)ethylamino]-5-(6-methyl-3-pyridylmethyl)-4-pyrimidone] | at least three
Cc1ccc(Cc2cnc(NCCCCc3ncccc3Cl)[nH]c2=O)cn1 [Example 7, 2-[4-(3-chloro-2-pyridyl)butylamino]-5-(6-methyl-3-pyridyImethyl)-4-pyrimidone] | at least three
Cc1ccc(Cc2cnc(NCCSCc3nccs3)[nH]c2=O)cn1 [Example 9, 2-[2-(2-thiazolylmethylthio)ethylamino]-5-(6-methyl-3-pyridylmethyl)-4-pyrimidone] | at least three
Cc1cc(Cc2cnc(NCCSCc3ncccc3Br)[nH]c2=O)cnc1C [Example 11, 2-[2-(3-bromo-2-pyridylmethylthio)ethylamino]-5-(5,6-dimethyl-3-pyridylmethyl)-4-pyrimidone] | at least three
COc1ccc(Cc2cnc(NCCSCc3nc[nH]c3C)[nH]c2=O)cn1 [Example 13, 2-[2-(5-methyl-4-imidazolylmethylthio)ethylamino]-5-(6-methoxy-3-pyridyImethyl)-4-pyrimidone] | at least three
